# Several values for one entry are separate records, joined by “and”; a condition that tells them apart may be missing. Equal values may be shown once.
# Columns and labels:
# [1] = system: Mus musculus; assay: Analgesic activity in albino mouse assessed protection against acetic acid-induced abdominal writhing at 10 mg/kg, ip pretreated for 1 hr followed by acetic acid challenge and measured starting 5 mins post acetic acid challenge for 10 mins relative to indomethacin; format: functional; conditions: time 75 min, 1.25 h
# [2] = system: Rattus norvegicus; assay: Antiinflammatory activity in Wistar rat model of carrageenan-induced paw edema assessed as reduction in thickness of paw edema at 10 mg/kg, ip pretreated for 1 hr followed by carrageenan challenge and measured after 24 hrs (reference value: 0.83 +/-0.08 mm); format: functional; conditions: time 25 hrs
# [3] = system: Rattus norvegicus; assay: Antiinflammatory activity in Wistar rat model of carrageenan-induced paw edema assessed as reduction in thickness of paw edema at 10 mg/kg, ip pretreated for 1 hr followed by carrageenan challenge and measured after 1 hr (reference value: 2.41 +/-0.05 mm); format: functional; conditions: time 1 hr after carrageenan
# [4] = Ulcerogenic activity in fasted albino mouse assessed as ulcer index in gastric mucosa at 10 mg/kg, po for 3 days (reference value: 0); format: toxicity, organism-based; conditions: in vivo, 72 h, time 3 day
# [5] = system: Rattus norvegicus; assay: Antiinflammatory activity in Wistar rat model of carrageenan-induced paw edema assessed as reduction in thickness of paw edema at 10 mg/kg, ip pretreated for 1 hr followed by carrageenan challenge and measured after 3 hrs (reference value: 1.79 +/-0.07 mm); format: functional; conditions: time 4 hrs
# [6] = system: Salmonella typhimurium; assay: Antibacterial activity against Salmonella typhimurium ATCC 19430 incubated for 18 hrs by agar dilution assay; format: functional, Salmonella enterica subsp. enterica serovar Typhimurium; conditions: Salmonella enterica
# [7] = system: Rattus norvegicus; assay: Anti-inflammatory activity in Wistar rat assessed as inhibition of carrageenan-induced paw edema at 10 mg/kg, ip pretreated for 1 hr followed by carrageenan challenge and measured after 24 hr relative to control (reference value: 0.00 +/-0.3 %); format: functional; conditions: time 25 hrs
# [8] = system: Mus musculus; assay: Analgesic activity in albino mouse assessed as protection at 10 mg/kg, ip measured after 120 mins by hot plate test relative to indomethacin; format: functional; conditions: 2 h
# [9] = system: Splenocyte; assay: Immunomodulatory activity in Swiss albino mouse splenocytes assessed as cell viability at 10 uM by measuring inhibition of stimulation index incubated for 72 hrs in presence of mitogenic stimulus phytohaemagglutinin by MTT assay relative to indomethacin; format: functional; conditions: read-out: Activity
# [10] = system: Peritoneal macrophage; assay: Antiinflammatory activity in […] mouse Peritoneal macrophages assessed as inhibition of LPS-induced NO production at 10 uM preincubated for 1 hr followed by LPS stimulation measured after 24 hrs by Griess method relative to control (reference value: 0.0 %); format: functional; set-up: scale not given: the % may be the effect or the level left; conditions: time 25 hrs
# [11] = system: Mus musculus; assay: Analgesic activity in albino mouse assessed as forepaw licking/jumping latency time at 10 mg/kg, ip measured after 120 mins by hot plate test (reference value: 2.62 +/- 0.06 sec); format: functional; conditions: 2 h
# [12] = Toxicity in albino mouse assessed as induction of toxic symptoms at 50 to 100 mg/kg, ip measured after 24 hrs; format: organism-based; conditions: in vivo, dose 50-100 mg/kg
# [13] = system: Rattus norvegicus; assay: Anti-inflammatory activity in Wistar rat assessed as inhibition of carrageenan-induced paw edema at 10 mg/kg, ip pretreated for 1 hr followed by carrageenan challenge and measured after 4 hr relative to control (reference value: 0.00 +/-0.4 %); format: functional; conditions: time 5 hrs
# [14] = system: Mus musculus; assay: Analgesic activity in albino mouse assessed as protection at 10 mg/kg, ip measured after 120 mins by hot plate test (reference value: 0 %); format: functional; conditions: 2 h
# [15] = system: Mus musculus; assay: Analgesic activity in albino mouse assessed as forepaw licking/jumping latency time at 10 mg/kg, ip measured after 30 mins by hot plate test (reference value: 5.02 +/- 0.09 sec); format: functional; conditions: 0.5 h
# [16] = system: Rattus norvegicus; assay: Antiinflammatory activity in Wistar rat model of carrageenan-induced paw edema assessed as reduction in thickness of paw edema at 10 mg/kg, ip pretreated for 1 hr followed by carrageenan challenge and measured after 4 hrs (reference value: 1.40 +/-0.10 mm); format: functional; conditions: time 5 hrs
# [17] = system: Streptococcus pyogenes; assay: Antibacterial activity against Streptococcus pyogenes ATCC 19615 incubated for 18 hrs by agar dilution method; format: functional
# [18] = system: Mus musculus; assay: Analgesic activity in albino mouse assessed as forepaw licking/jumping latency time at 10 mg/kg, ip measured after 60 mins by hot plate test (reference value: 3.42 +/- 0.03 sec); format: functional; conditions: 1 h
# [19] = system: Rattus norvegicus; assay: Anti-inflammatory activity in Wistar rat assessed as inhibition of carrageenan-induced paw edema at 10 mg/kg, ip pretreated for 1 hr followed by carrageenan challenge and measured after 2 hr relative to control (reference value: 0.00 +/-0.03 %); format: functional; conditions: time 3 hrs
# [20] = system: Mus musculus; assay: Analgesic activity in albino mouse assessed as forepaw licking/jumping latency time at 10 mg/kg, ip measured after 90 mins by hot plate test (reference value: 2.72 +/- 0.01 sec); format: functional; conditions: 1.5 h
# [21] = system: Rattus norvegicus; assay: Anti-inflammatory activity in Wistar rat assessed as inhibition of carrageenan-induced paw edema at 10 mg/kg, ip pretreated for 1 hr followed by carrageenan challenge and measured after 3 hr relative to control (reference value: 0.00 +/-0.1 %); format: functional; conditions: time 4 hrs
# [22] = system: Rattus norvegicus; assay: Antiinflammatory activity in Wistar rat model of carrageenan-induced paw edema assessed as reduction in thickness of paw edema at 10 mg/kg, ip pretreated for 1 hr followed by carrageenan challenge and measured after 2 hrs (reference value: 2.06 +/-0.09 mm); format: functional; conditions: time 3 hrs
# [23] = system: Mus musculus; assay: Analgesic activity in albino mouse assessed protection against acetic acid-induced abdominal writhing at 10 mg/kg, ip pretreated for 1 hr followed by acetic acid challenge and measured starting 5 mins post acetic acid challenge for 10 mins relative to control (reference value: 0 %); format: functional; conditions: time 75 min, 1.25 h
# [24] = system: Peritoneal macrophage; assay: Antiinflammatory activity in […] mouse Peritoneal macrophages assessed as reduction in LPS-induced NO production by measuring reduction in stimulation index at 10 uM preincubated for 1 hr followed by LPS stimulation measured after 24 hrs by Griess method (reference value: 27.31 +/- 2.56 uM); format: functional; conditions: time 25 hrs
# [25] = system: Mus musculus; assay: Analgesic activity in albino mouse assessed as protection at 10 mg/kg, ip measured after 60 mins by hot plate test (reference value: 0 %); format: functional; conditions: 1 h
# [26] = system: Mus musculus; assay: Analgesic activity in albino mouse assessed reduction in acetic acid-induced abdominal writhing by measuring writing reflex at 10 mg/kg, ip pretreated for 1 hr followed by acetic acid challenge and measured starting 5 mins post acetic acid challenge for 10 mins (reference value: 42.4 +/- 1.02); format: functional; conditions: time 75 min, 1.25 h
# [27] = system: Rattus norvegicus; assay: Anti-inflammatory activity in Wistar rat assessed as inhibition of carrageenan-induced paw edema at 10 mg/kg, ip pretreated for 1 hr followed by carrageenan challenge and measured after 1 hr relative to control (reference value: 0.00 +/-0.02 %); format: functional; conditions: time 2 hrs
# [28] = system: Candida albicans; assay: Antifungal activity against Candida albicans incubated for 18 to 24 hrs by CLSI method; format: functional; conditions: time 18-24 hrs
# [29] = system: Rattus norvegicus; assay: Anti-inflammatory activity in Wistar rat assessed as inhibition of carrageenan-induced paw edema at 10 mg/kg, ip pretreated for 1 hr followed by carrageenan challenge and measured after 4 hr relative to indomethacin; format: functional; conditions: time 5 hrs
# [30] = system: Pseudomonas aeruginosa; assay: Antibacterial activity against Pseudomonas aeruginosa ATCC 27853 incubated for 18 hrs by agar dilution assay; format: functional
# [31] = system: Staphylococcus aureus; assay: Antibacterial activity against Staphylococcus aureus ATCC 25923 incubated for 18 hrs by agar dilution method; format: functional
# [32] = system: Mus musculus; assay: Analgesic activity in albino mouse assessed as protection at 10 mg/kg, ip measured after 90 mins by hot plate test (reference value: 0 %); format: functional; conditions: 1.5 h
# [33] = system: Splenocyte; assay: Immunomodulatory activity in Swiss albino mouse splenocytes assessed as cell viability at 10 uM by measuring stimulation index incubated for 72 hrs in presence of mitogenic stimulus phytohaemagglutinin by MTT assay (reference value: 1.00 +/- 0.24); format: functional
# [34] = Ulcerogenic activity in fasted albino mouse assessed as incidence of gastric ulceration at 10 mg/kg, po for 3 days (reference value: 0 %); format: toxicity, organism-based; conditions: in vivo, 72 h, time 3 day
# [35] = Ulcerogenic activity in fasted albino mouse assessed as average number of ulcers in gastric mucosa at 10 mg/kg, po for 3 days (reference value: 0); format: toxicity, organism-based; conditions: in vivo, 72 h, time 3 day
# [36] = Ulcerogenic activity in fasted albino mouse assessed as average severity of ulcers in gastric mucosa at 10 mg/kg, po for 3 days (reference value: 0); format: toxicity, organism-based; conditions: in vivo, 72 h, time 3 day
# [37] = system: Mus musculus; assay: Analgesic activity in albino mouse assessed as protection at 10 mg/kg, ip measured after 30 mins by hot plate test (reference value: 0 %); format: functional; conditions: 0.5 h
SMILES,Activity [1] [%],Activity [2] [mm],Activity [3] [mm],UI [4],Activity [5] [mm],MIC [6],inhibition in vivo at 10 mg/kg [7] [%],Activity [8] [%],viability at 10 µM [9] [%],Activity [10] [%],Time [11] [s],Activity [12],inhibition in vivo at 10 mg/kg [13] [%],Activity [14] [%],Time [15] [s],Activity [16] [mm],MIC [17],Time [18] [s],inhibition in vivo at 10 mg/kg [19] [%],Time [20] [s],also measured
COc1cc(/C=C/C(=O)/C=C(O)/C=C/c2ccc(OC(=O)CNC(=O)OCC3c4ccccc4-c4ccccc43)c(OC)c2)ccc1OC(=O)CNC(=O)OCC1c2ccccc2-c2ccccc21,93.3,0.15,1.45,0,0.47,1 µg/mL and 1.08 µM,82,100,68.8,31.43,3.72,Non-Toxic,79,42,5.96,0.29,1 µg/mL and 1.08 µM,4.08,62,3.82,inhibition in vivo at 10 mg/kg [21]: 74%; Activity [22]: 0.78 mm; Activity [23]: 57.5%; Activity [24]: 18.73 µM; Activity [25]: 19.3%; Activity [26]: 18; inhibition in vivo at 10 mg/kg [27]: 40%; MIC [28]: 2 µg/mL and 2.16 µM; inhibition in vivo at 10 mg/kg [29]: 91%; MIC [30]: 1 µg/mL and 1.08 µM; MIC [31]: 1 µg/mL and 1.08 µM; Activity [32]: 40.4%; Activity_index [33]: 1.76; Activity [34]: 0%; Activity [35]: 0; Activity [36]: 0; Activity [37]: 18.7%
COc1cc(/C=C/C(=O)/C=C(O)/C=C/c2ccc(OC(=O)[C@H](CCSC)NC(=O)OCc3ccccc3)c(OC)c2)ccc1OC(=O)[C@H](CCSC)NC(=O)OCc1ccccc1,9.2,0.05,0.58,3.99,0.25,0.125 µg/mL and 0.139 µM,94,51,99.3,44.44,3.18,Non-Toxic,88,21.4,5.32,0.17,0.125 µg/mL and 0.139 µM,3.94,80,3.66,inhibition in vivo at 10 mg/kg [21]: 86%; Activity [22]: 0.41 mm; Activity [23]: 61.1%; Activity [24]: 15.17 µM; Activity [25]: 15.2%; Activity [26]: 16.5; inhibition in vivo at 10 mg/kg [27]: 76%; MIC [28]: 2 µg/mL and 2.23 µM; inhibition in vivo at 10 mg/kg [29]: 101%; MIC [30]: 0.125 µg/mL and 0.139 µM; MIC [31]: 0.125 µg/mL and 0.139 µM; Activity [32]: 34.6%; Activity_index [33]: 1.22; Activity [34]: 3.33%; Activity [35]: 0.33; Activity [36]: 0.33; Activity [37]: 6%
